These results are taken from ChEMBL document CHEMBL3808377, “Core Replacements in a Potent Series of VEGFR-2 Inhibitors and Their Impact on Potency, Solubility, and hERG” (ACS Med Chem Lett, 2016).

Data set [1] is described as follows: Aqueous solubility of the compound at pH 6.8. The class given is physicochemical.
Data set [2] concerns the target Voltage-gated inwardly rectifying potassium channel KCNH2 (Homo sapiens, UniProt Q12809). In words: Binding affinity to human ERG by radioligand binding assay.

Each structure is given as a SMILES string. ≈ marks a conversion by molar mass, not a printed value. Some results are limits rather than exact numbers.

Sequence of Voltage-gated inwardly rectifying potassium channel KCNH2 (Q12809 whole entry): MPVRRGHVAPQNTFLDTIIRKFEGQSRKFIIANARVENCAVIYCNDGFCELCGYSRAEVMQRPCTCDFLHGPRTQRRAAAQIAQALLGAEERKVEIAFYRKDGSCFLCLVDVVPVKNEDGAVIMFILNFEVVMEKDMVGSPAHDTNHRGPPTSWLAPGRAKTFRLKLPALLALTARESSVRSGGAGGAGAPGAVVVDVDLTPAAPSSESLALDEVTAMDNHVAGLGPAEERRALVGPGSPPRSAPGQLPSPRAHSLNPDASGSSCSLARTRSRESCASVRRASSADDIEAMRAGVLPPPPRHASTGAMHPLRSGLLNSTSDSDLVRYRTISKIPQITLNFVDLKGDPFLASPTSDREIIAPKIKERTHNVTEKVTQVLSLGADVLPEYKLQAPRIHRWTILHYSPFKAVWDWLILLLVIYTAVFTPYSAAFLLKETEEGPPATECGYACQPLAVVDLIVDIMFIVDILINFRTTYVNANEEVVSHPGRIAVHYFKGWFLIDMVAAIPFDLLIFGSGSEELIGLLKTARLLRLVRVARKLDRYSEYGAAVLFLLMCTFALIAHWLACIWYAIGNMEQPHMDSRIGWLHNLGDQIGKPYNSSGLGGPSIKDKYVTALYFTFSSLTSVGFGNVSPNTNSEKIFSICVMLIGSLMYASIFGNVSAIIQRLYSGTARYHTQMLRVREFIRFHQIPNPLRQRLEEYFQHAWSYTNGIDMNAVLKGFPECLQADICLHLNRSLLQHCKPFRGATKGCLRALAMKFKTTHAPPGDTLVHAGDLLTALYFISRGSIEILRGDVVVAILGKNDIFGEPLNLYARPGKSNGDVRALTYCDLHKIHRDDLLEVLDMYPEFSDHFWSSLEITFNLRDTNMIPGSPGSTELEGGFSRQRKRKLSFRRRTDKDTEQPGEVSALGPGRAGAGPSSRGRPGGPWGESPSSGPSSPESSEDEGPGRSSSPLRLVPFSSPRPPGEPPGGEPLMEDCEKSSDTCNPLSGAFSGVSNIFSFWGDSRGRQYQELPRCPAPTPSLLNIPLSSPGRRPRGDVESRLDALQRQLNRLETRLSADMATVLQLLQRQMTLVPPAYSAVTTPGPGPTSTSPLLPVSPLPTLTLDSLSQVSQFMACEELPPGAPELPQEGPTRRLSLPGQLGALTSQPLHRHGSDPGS

For the compound `CC(C)(C)c1cc(NC(=O)c2cnc3cc(Oc4ncnc5c4CNC5)ccn23)no1`, in data set [1], the concentration in solution (solubility) came to 456 µM (≈ 191 µg/mL). For the same compound, the IC50 (usually the concentration that gives 50% inhibition) in data set [2] came to 9.2 µM.
On the same counts, the results for `CC(C)(C)c1cc(NC(=O)n2ccc3nc(Oc4ncnc5c4CNC5)ccc32)no1` are 260 µM (≈ 109 µg/mL) and 26 µM.
The matching figures for `C[C@H]1Cc2c(ncnc2Oc2ccc3c(ccn3C(=O)Nc3cc(C4(C(F)(F)F)CC4)on3)c2)CN1`: 34 µM (≈ 16.9 µg/mL) and 7.4 µM.
For `CC(C)(C)c1cc(NC(=O)n2ccc3ccc(Oc4ncnc5c4CNC5)cc32)no1`, the concentration in solution in data set [1] (solubility) was 81 µM (≈ 33.9 µg/mL). In data set [2], this compound gave an IC50 of 21 µM.
On to `CC1(c2cc(NC(=O)c3ccn4cc(Oc5ncnc6c5CNC6)ccc34)n[nH]2)CC1`, for which the solubility (commonly the dissolved amount per volume that the medium holds) in data set [1] amounted to 280 µM (≈ 116 µg/mL).
Turning to `C[C@H]1Cc2c(ncnc2Oc2ccc3ccn(C(=O)Nc4cc(C5(C(F)(F)F)CC5)on4)c3c2)CN1`, the solubility in data set [1] worked out at 3 µM (≈ 1.5 µg/mL). This compound returned an IC50 in data set [2] of 8.6 µM.
On the same counts, the results for `CC(C)(C)c1cc(NC(=O)n2ccc3ncc(Oc4ncnc5c4CNC5)cc32)no1` are 240 µM (≈ 101 µg/mL) and more than 30 µM.
On the same counts, the results for `CC(C)(C)c1cc(NC(=O)n2ncc3cc(Oc4ncnc5c4CNC5)ccc32)no1` are 9 µM (≈ 3.78 µg/mL) and 7.7 µM.
The matching figures for `CC(C)(C)c1cc(NC(=O)n2ccc3cc(Oc4ncnc5c4CNC5)cnc32)no1`: 25 µM (≈ 10.5 µg/mL) and 5.7 µM.
